Patent US4948880A, “Anthracycline derivatives having cytostatic activity” (Behringwerke Aktiengesellschaft, priority 1986, dated 1990)
Values after ≈ are worked out from the molar mass of the structure shown. Counter-ions that a name gives are not always drawn. Like-named read-outs stand apart in the source and are kept apart here.

Test system: mouse L1210 leukemia cells
Assay: Formation of L1210 leukemia cell colonies in soft agar (cytostatic activity)
Type: cell-based
Conditions: colonies > 60 μm, % of untreated control; for IC50: Mus musculus
Protocol: The cytostatic activity of the compounds according to the invention have been tested using mouse L1210 leukemia cells. Use was made for this by the formation of L1210 leukemia cell colonies in agar plates. This method is used to detect the effect of the test substances on the growth behavior of the cells over 1 hour or over several generations. In this connection, with a cell cycle time of 10-12 hours, about 14 consecutive generations are observed in a 7-day duration of the test. In this test, the substances having cytostatic activity according to the invention bring about a reduction, compared with an untreated control sample, in the number of colonies which is to be observed.
Procedure for Determining the Formation of L1210 Leukemia Cell Colonies in Soft Agar
500 leukemia cells per plate were incubated with various concentrations of the test substance at 37° C. for 1 hour. These cells were then washed twice with McCoy 5A medium, 0.3% agar was added, and finally the mixture was poured into Petri dishes. Controls were incubated only with fresh medium. In place of the incubation for one hour, in some cases various concentrations and test substances were mixed with the upper agar layer in order in this way to achieve continuous exposure of the cells throughout the incubation time. After the agar had solidified, the plates were incubated in an incubator at 37° C. for 7 days (5% by volume CO2, 95% relative atmospheric humidity). Thereafter the number of colonies with a diameter of more than 60 μm which had formed was counted. The results have been stated as the number of colonies in treated agar plates as a percentage of the untreated control. The dose-effect graph obtained in this way was used to determine the IC50 as a measure of the activity of the substance. The results for the compounds described here are compiled in Table 1 which follows, comparing with adriamycin.

[1] = L1210, 168 h, read-out: Continuous incubation IC50, continuous exposure, test substance mixed with upper agar layer, 7 days, 37° C.
[2] = L1210, read-out: 1 h incubation IC50, 1 hour incubation with test substance at 37° C., then washed, 7 days in agar
[3] = L1210, 168 h, continuous exposure, test substance mixed with upper agar layer, 7 days, 37° C., read-out: Continuous incubation IC50
[4] = L1210, 1 hour incubation with test substance at 37° C., then washed, 7 days in agar, read-out: 1 h incubation IC50

Compound	IC50 [1] [µg/mL]	IC50 [2] [µg/mL]	1 h incubation IC50 (1 hour incubation with test substance at 37° C., then washed, 7 days in agar, hydrochloride) [µg/mL]	IC50 [3] [µg/mL]	IC50 [4] [µg/mL]
CC[C@@]1(O)C[C@H](O[C@H]2C[C@H](NC)[C@H](O)[C@H](C)O2)c2c(O)c3c(c(O)c2[C@H]1O)C(=O)c1cccc(O)c1C3=O [compound 1, 7-O-(3'-N-Methyl-α-L-daunosaminyl)-β-rhodomycinone]	0.02 (≈ 0.0378 µM)	0.038 (≈ 0.0718 µM)			
CC[C@@]1(O)C[C@H](O[C@H]2C[C@H](NC)[C@H](O)[C@H](C)O2)c2c(O)c3c(c(O)c2[C@H]1O)C(=O)c1cccc(O)c1C3=O [compound 2, 7-O-(3'-N-Methyl-α-L-daunosaminyl)-β-rhodomycinone hydrochloride]			0.026		
CC[C@@]1(O)C[C@H](O[C@H]2C[C@H](NC)[C@H](O)[C@H](C)O2)c2c(O)c3c(c(O)c2[C@H]1O)C(=O)c1c(O)ccc(O)c1C3=O [compound 3, 7-O-(3'-N-Methyl-α-L-daunosaminyl)-β-isorhodomycinone]				0.11 (≈ 0.202 µM)	0.13 (≈ 0.238 µM)
CC[C@@]1(O)C[C@H](O[C@H]2C[C@H](NC)[C@H](O)[C@H](C)O2)c2c(O)c3c(c(O)c2[C@H]1C(=O)OC)C(=O)c1c(O)ccc(O)c1C3=O [compound 5, 7-O-(3'-N-Methyl-α-L-daunosaminyl)-ε-isorhodomycinone]				0.28 (≈ 0.477 µM)	> 1
CC[C@@]1(O)C[C@H](O[C@H]2C[C@H](N(C)C=O)[C@H](O)[C@H](C)O2)c2c(O)c3c(c(O)c2[C@H]1O)C(=O)c1cccc(O)c1C3=O [compound 6, 7-O-(3'-N-Formyl-3'-N-methyl-α-L-daunosaminyl)-β-rhodomycinone]	0.044 (≈ 0.0789 µM)	0.15 (≈ 0.269 µM)			
CC[C@@]1(O)C[C@H](O[C@H]2C[C@H](N(C)CC#N)[C@H](O)[C@H](C)O2)c2c(O)c3c(c(O)c2[C@H]1O)C(=O)c1cccc(O)c1C3=O [compound 7, 7-O-(3'-N-Cyanomethyl-3'-N-methyl-α-L-daunosaminyl)-β-rhodomycinone]	0.013 (≈ 0.0229 µM)	0.021 (≈ 0.0369 µM)			
CC[C@@]1(O)C[C@H](O[C@H]2C[C@H](N(C)CC#N)[C@H](O)[C@H](C)O2)c2c(O)c3c(c(O)c2[C@H]1O)C(=O)c1c(O)ccc(O)c1C3=O [compound 8, 7-O-(3'-N-Cyanomethyl-3'-N-methyl-α-L-daunosaminyl)-β-isorhodomycinone]	0.042 (≈ 0.0718 µM)	0.2 (≈ 0.342 µM)			
CC[C@@]1(O)C[C@H](O[C@H]2C[C@H](N(C)Cc3ccccc3)[C@H](O)[C@H](C)O2)c2c(O)c3c(c(O)c2[C@H]1O)C(=O)c1cccc(O)c1C3=O [compound 9, 7-O-(3'-N-Benzyl-3'-N-methyl-α-L-daunosaminyl)-β-rhodomycinone]				0.028 (≈ 0.0452 µM)	0.32 (≈ 0.516 µM)
CCN(C)[C@H]1C[C@H](O[C@H]2C[C@](O)(CC)[C@H](O)c3c(O)c4c(c(O)c32)C(=O)c2c(O)cccc2C4=O)O[C@@H](C)[C@H]1O [compound 11]				0.007 (≈ 0.0126 µM)	0.08 (≈ 0.143 µM)
CCCN(C)[C@H]1C[C@H](O[C@H]2C[C@](O)(CC)[C@H](O)c3c(O)c4c(c(O)c32)C(=O)c2c(O)cccc2C4=O)O[C@@H](C)[C@H]1O [compound 12, 7-O-(3'-N-Methyl-3'-N-propyl-α-L-daunosaminyl)-β-rhodomycinone]				0.026 (≈ 0.0455 µM)	0.1 (≈ 0.175 µM)
CCCCN(C)[C@H]1C[C@H](O[C@H]2C[C@](O)(CC)[C@H](O)c3c(O)c4c(c(O)c32)C(=O)c2c(O)cccc2C4=O)O[C@@H](C)[C@H]1O [compound 13, 7-O-(3'-N-Butyl-3'-N-methyl-α-L-daunosaminyl)-β-rhodomycinone]				0.018 (≈ 0.0307 µM)	0.125 (≈ 0.213 µM)
CC[C@@]1(O)C[C@H](O[C@H]2C[C@H](N(C)C(C)=O)[C@H](O)[C@H](C)O2)c2c(O)c3c(c(O)c2[C@H]1C(=O)OC)C(=O)c1c(O)ccc(O)c1C3=O [compound 14, 7-O-(3'-N-Acetyl-3'-N-methyl-α-L-daunosaminyl)-ε-isorhodomycinone]				0.5 (≈ 0.794 µM)	> 1
CC[C@@]1(O)C[C@H](O[C@H]2C[C@H](NC)[C@H](O)[C@H](C)O2)c2c(O)c3c(c(O)c2[C@H]1O[C@H]1C[C@H](NC)[C@H](O)[C@H](C)O1)C(=O)c1cccc(O)c1C3=O [compound 15, 7,10-O-bis-(3'-N-Methyl-α-L-daunosaminyl)-β-rhodomycinone]				> 1	> 1
